IC50 data for 27 compounds are collected here from patent US11078197B2, “5-membered and bicyclic heterocyclic amides as inhibitors of rock” (BRISTOL-MYERS SQUIBB COMPANY, priority 2017, dated 2021).

This assay has as its target ROCK2 (Homo sapiens (Human), UniProt O75116). Nature of the assay: ROCK2 assay (peptide phosphorylation, LABCHIP 3000 Reader). It is filed as biochemical. The note with it: 5 μM ATP, 1.5 μM peptide substrate, dose-response. The procedure: After incubation, the reaction was terminated by the addition of EDTA and the phosphorylated and non-phosphorylated peptides separated using a LABCHIP®3000 Reader (Caliper Life Sciences). […] Compounds were tested in dose-response format, and the inhibition of kinase activity was calculated at each concentration of compound. […] Representative Examples were tested in the ROCK2 assay described above and found having ROCK2 inhibitory activity.

ROCK2, sequence (O75116 whole entry, species assumed): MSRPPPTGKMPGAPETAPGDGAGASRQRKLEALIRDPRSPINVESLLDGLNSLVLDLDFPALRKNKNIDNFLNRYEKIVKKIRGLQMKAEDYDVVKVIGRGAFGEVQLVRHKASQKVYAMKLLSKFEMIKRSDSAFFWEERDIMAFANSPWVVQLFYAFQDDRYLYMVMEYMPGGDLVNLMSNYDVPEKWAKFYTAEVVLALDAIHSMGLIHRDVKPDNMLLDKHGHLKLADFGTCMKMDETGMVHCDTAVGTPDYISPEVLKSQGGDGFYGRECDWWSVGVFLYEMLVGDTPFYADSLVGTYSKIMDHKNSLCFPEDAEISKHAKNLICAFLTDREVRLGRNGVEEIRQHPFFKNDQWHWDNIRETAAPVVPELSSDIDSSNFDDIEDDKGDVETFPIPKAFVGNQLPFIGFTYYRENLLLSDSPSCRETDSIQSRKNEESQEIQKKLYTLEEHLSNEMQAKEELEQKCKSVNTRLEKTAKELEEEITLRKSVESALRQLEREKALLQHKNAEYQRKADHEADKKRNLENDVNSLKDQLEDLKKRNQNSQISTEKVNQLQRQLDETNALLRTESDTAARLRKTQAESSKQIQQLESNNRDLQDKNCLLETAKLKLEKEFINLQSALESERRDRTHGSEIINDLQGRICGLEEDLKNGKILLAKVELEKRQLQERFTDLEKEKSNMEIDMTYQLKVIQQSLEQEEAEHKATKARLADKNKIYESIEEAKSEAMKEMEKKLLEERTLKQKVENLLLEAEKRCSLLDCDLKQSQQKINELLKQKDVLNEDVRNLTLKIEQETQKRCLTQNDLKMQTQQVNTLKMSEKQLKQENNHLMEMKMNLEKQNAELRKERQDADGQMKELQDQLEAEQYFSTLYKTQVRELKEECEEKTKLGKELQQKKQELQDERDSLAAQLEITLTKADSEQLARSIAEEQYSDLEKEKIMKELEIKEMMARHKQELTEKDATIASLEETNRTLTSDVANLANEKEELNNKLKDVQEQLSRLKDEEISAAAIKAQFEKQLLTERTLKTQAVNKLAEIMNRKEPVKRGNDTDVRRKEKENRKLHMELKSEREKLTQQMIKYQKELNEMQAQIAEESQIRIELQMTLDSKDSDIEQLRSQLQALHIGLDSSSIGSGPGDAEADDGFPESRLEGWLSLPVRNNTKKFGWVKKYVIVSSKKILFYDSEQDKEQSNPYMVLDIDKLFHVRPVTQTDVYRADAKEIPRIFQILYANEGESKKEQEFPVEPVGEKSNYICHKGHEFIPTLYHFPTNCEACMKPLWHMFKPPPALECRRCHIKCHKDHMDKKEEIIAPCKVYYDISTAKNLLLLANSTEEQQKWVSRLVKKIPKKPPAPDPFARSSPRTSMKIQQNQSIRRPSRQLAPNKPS

Turning to `Cc1csc2cc(C(N)=O)c(O[C@H]3C[C@@]4(C[C@H](NC(=O)c5cnc6ccc(F)cc6c5)C4)C3)nc12` (stereo partly drawn) [Example 99, 6-fluoro-N-[(aR)-6-({6-carbamoyl-3-methylthieno[3,2-b]pyridin-5-yl}oxy)spiro[3.3]heptan-2-yl]quinoline-3-carboxamide], the IC50 (in general, the concentration needed to halve the response being measured) is 67.1 nM. `COc1nc(O[C@H]2CC3(C[C@H](NC(=O)c4cnn(-c5ccc(C#N)cc5)c4C)C3)C2)c(C(N)=O)s1` (stereo partly drawn) [Example 112, 4-(((2S,4s,6)-6-(1-(4-cyanophenyl)-5-methyl-1H-pyrazole-4-carboxamido)spiro[3.3]heptan-2-yl)oxy)-2-methoxythiazole-5-carboxamide] showed a half-maximal inhibitory concentration (IC50) of 205 nM. This IC50 lies about 3.1-fold higher than the previous one. In the case of `Cn1ncc2cc(C(N)=O)c(O[C@H]3C[C@@]4(C[C@H](NC(=O)c5nnc(-c6ccc(F)cc6F)s5)C4)C3)nc21` (stereo partly drawn) [Example 151, 5-(2,4-difluorophenyl)-N-[(4s)-6-({5-carbamoyl-1-methyl-1H-pyrazolo[3,4-b]pyridin-6-yl}oxy)spiro[3.3]heptan-2-yl]-1,3,4-thiadiazole-2-carboxamide], the 50% inhibitory concentration (IC50) came out at 13.6 nM. `CC(C)(O)COc1ccc2c(C(=O)NC3CC4(C3)CC(Oc3nn(CC5CC5)cc3C(N)=O)C4)cnn2c1C1CC1` (stereo not drawn) [Example 5]: half-maximal inhibition (IC50) required 52.6 nM. Turning to `COCCn1cc(C(N)=O)c(O[C@H]2C[C@@]3(C[C@H](NC(=O)c4cnn5c(C6CC6)c(OCC(C)(C)O)ccc45)C3)C2)n1` (stereo partly drawn) [Example 23, 3-({(aR)-6-[7-cyclopropyl-6-(2-hydroxy-2-methylpropoxy)pyrazolo [1,5-a]pyridine-3-amido]spiro[3.3]heptan-2-yl}oxy)-1-(2-methoxyethyl)-1H-pyrazole-4-carboxamide], half-maximal inhibition (IC50) required 77.7 nM. For the compound `Cn1ncc2cc(C(N)=O)c(O[C@H]3C[C@@]4(C[C@H](NC(=O)c5cnn6cc(OCC(C)(C)O)ccc56)C4)C3)nc21` (stereo partly drawn) [Example 101, 1-methyl-6-{[(aR)-6-[6-(2-hydroxy-2-methylpropoxy)pyrazolo [1,5-a]pyridine-3-amido]spiro[3.3]heptan-2-yl]oxy}-1H-pyrazolo[3,4-b]pyridine-5-carboxamide], inhibition was half-maximal at 6 nM (IC50).

For `CC(C)(O)COc1ccc2c(C(=O)N[C@H]3C[C@]4(C3)C[C@H](Oc3[nH]ncc3C(N)=O)C4)cnn2c1C1CC1` (stereo partly drawn) [Example 26, 5-({(aR)-6-[7-cyclopropyl-6-(2-hydroxy-2-methylpropoxy)pyrazolo [1,5-a]pyridine-3-amido]spiro[3.3]heptan-2-yl}oxy)-1H-pyrazole-4-carboxamide], it took 25.4 nM to reach half-maximal inhibition (IC50). For the compound `Cc1c(C(=O)N[C@H]2C[C@]3(C2)C[C@H](Oc2nn4ccccc4c2C(N)=O)C3)cnn1-c1ccc(Cl)cc1` (stereo partly drawn) [Example 119, 1-(4-chlorophenyl)-5-methyl-N-[(4s)-6-({3-carbamoylpyrazolo[1,5-a]pyridin-2-yl}oxy)spiro[3.3]heptan-2-yl]-1H-pyrazole-4-carboxamide], the 50% inhibitory concentration (IC50) was 351 nM. For `Cc1sc2cc(C(N)=O)c(O[C@H]3C[C@@]4(C[C@H](NC(=O)c5cnc6ccc(F)cc6c5)C4)C3)nc2c1C` (stereo partly drawn) [Example 96, 6-fluoro-N-[(aR)-6-({6-carbamoyl-2,3-dimethylthieno[3,2-b]pyridin-5-yl}oxy)spiro[3.3]heptan-2-yl]quinoline-3-carboxamide], the IC50 worked out at 126 nM. Compound `Cn1ncc2cc(C(N)=O)c(O[C@H]3C[C@@]4(C[C@H](NC(=O)c5nn(CC(F)F)c6cc(OCC(C)(C)F)ccc56)C4)C3)nc21` (stereo partly drawn) [Example 160, 1-(2,2-difluoroethyl)-6-(2-fluoro-2-methylpropoxy)-N-[(4s)-6-({5-carbamoyl-1-methyl-1H-pyrazolo[3,4-b]pyridin-6-yl}oxy)spiro[3.3]heptan-2-yl]-1H-indazole-3-carboxamide] yielded an IC50 of 1.6 nM. This IC50 lies about 79-fold lower than the previous one. The compound `CC(C)(O)COc1ccc2c(C(=O)NC3CC4(C3)CC(Oc3nc5c(cc3C(N)=O)COCC5)C4)cnn2c1` (stereo not drawn) [Example 82, N-[6-({3-carbamoyl-5H,7H,8H-pyrano[4,3-b]pyridin-2-yl}oxy)spiro[3.3]heptan-2-yl]-6-(2-hydroxy-2-methylpropoxy) pyrazolo[1,5-a]pyridine-3-carboxamide] had an IC50 of 20 nM.

As for `CC(CC1NC(=O)N([C@H]2C[C@@]3(C[C@H](Oc4nn5ccccc5c4C(N)=O)C3)C2)C1=O)C(F)(F)F` (stereo partly drawn) [Example 140, 2-{[(4s)-6-[2,5-dioxo-4-(3,3,3-trifluoro-2-methylpropyl)imidazolidin-1-yl]spiro[3.3]heptan-2-yl]oxy}pyrazolo[1,5-a]pyridine-3-carboxamide], inhibition was half-maximal at 62.1 nM (IC50). Against the preceding compound, the IC50 is about 3.1-fold higher. Compound `Cn1ncc2cc(C(N)=O)c(O[C@H]3C[C@@]4(C[C@H](NC(=O)c5nnc(-c6ccc(C(F)(F)F)cc6)s5)C4)C3)nc21` (stereo partly drawn) [Example 149, N-[(4s)-6-({5-carbamoyl-1-methyl-1H-pyrazolo[3,4-b]pyridin-6-yl}oxy)spiro[3.3]heptan-2-yl]-5-[4-(trifluoromethyl)phenyl]-1,3,4-thiadiazole-2-carboxamide] had a concentration for half-maximal inhibition (IC50) of 14.5 nM. Under `Cc1c(C(=O)N[C@H]2C[C@]3(C2)C[C@H](Oc2nn(C4CC4)cc2C(N)=O)C3)cnn1-c1ccc(Cl)cc1` (stereo partly drawn) [Example 51, 1-cyclopropyl-3-{[(aR)-6-[1-(4-chlorophenyl)-5-methyl-1H-pyrazole-4-amido]spiro[3.3]heptan-2-yl]oxy}-1H-pyrazole-4-carboxamide] stands 44.8 nM; under `CC(C)(O)COc1ccc2c(C(=O)N[C@H]3C[C@]4(C3)C[C@H](Oc3nn5ccccc5c3C(N)=O)C4)nn(C(F)F)c2c1` (stereo partly drawn) [Example 121, 1-(difluoromethyl)-6-(2-hydroxy-2-methylpropoxy)-N-[(4s)-6-({3-carbamoylpyrazolo[1,5-a]pyridin-2-yl}oxy)spiro[3.3]heptan-2-yl]-1H-indazole-3-carboxamide], 18.3 nM. Under `Cc1csc2cc(C(N)=O)c(O[C@H]3C[C@@]4(C[C@H](NC(=O)c5cnn6cc(OCC(C)(C)O)ccc56)C4)C3)nc12` (stereo partly drawn) [Example 97, 3-methyl-5-{[(aR)-6-[6-(2-hydroxy-2-methylpropoxy)pyrazolo[1,5-a]pyridine-3-amido]spiro[3.3]heptan-2-yl]oxy}thieno[3,2-b]pyridine-6-carboxamide] stands 12 nM; under `CC(C)C1NC(=O)N([C@H]2C[C@@]3(C[C@H](Oc4nc(C5CC5)sc4C(N)=O)C3)C2)C1=O` (stereo partly drawn) [Example 106, 2-cyclopropyl-4-{[(aR)-6-[2,5-dioxo-4-(propan-2-yl)imidazolidin-1-yl]spiro[3.3]heptan-2-yl]oxy}-1,3-thiazole-5-carboxamide], 587 nM. `CC(CC1NC(=O)N([C@H]2C[C@@]3(C[C@H](Oc4nn5ccccc5c4C(N)=O)C3)C2)C1=O)C(F)(F)F` (stereo partly drawn) [Example 141, 2-{[(4s)-6-[2,5-dioxo-4-(3,3,3-trifluoro-2-methylpropyl)imidazolidin-1-yl]spiro[3.3]heptan-2-yl]oxy}pyrazolo[1,5-a]pyridine-3-carboxamide]: the half-inhibitory concentration (IC50) stood at 203 nM.

In turn, `N#Cc1cc(C(=O)N[C@H]2C[C@]3(C2)C[C@H](Oc2nn(-c4ccccc4)cc2C(N)=O)C3)cc(-c2cnn(C(F)F)c2)c1` (stereo partly drawn) [Example 41, 1-phenyl-3-{[(aR)-6-{3-cyano-5-[1-(difluoromethyl)-1H-pyrazol-4-yl]benzamido}spiro [3.3]heptan-2-yl]oxy}-1H-pyrazole-4-carboxamide] gave an IC50 of 55.6 nM. Compound `CC(C)CC1NC(=O)N([C@H]2C[C@@]3(C[C@H](Oc4nc(C5CC5)sc4C(N)=O)C3)C2)C1=O` (single isomer, unassigned) [Example 111] came in with an IC50 of 106 nM. Under `CC(C)(O)COc1ccc2c(C(=O)N[C@H]3C[C@]4(C3)C[C@H](Oc3nc(-c5ccccc5)sc3C(N)=O)C4)cnn2c1` (stereo partly drawn) [Example 17, 4-({(aR)-6-[6-(2-hydroxy-2-methylpropoxy)pyrazolo [1,5-a]pyridine-3-amido]spiro[3.3]heptan-2-yl}oxy)-2-phenyl-1,3-thiazole-5-carboxamide] stands 18.5 nM. With `COc1nc(O[C@H]2C[C@@]3(C[C@H](NC(=O)c4cnn5cc(OCC(O)(C(F)(F)F)C(F)(F)F)ccc45)C3)C2)c(C(N)=O)s1` (stereo partly drawn) [Example 116, 2-methoxy-4-{[(4s)-6-{6-[3,3,3-trifluoro-2-hydroxy-2-(trifluoromethyl)propoxy]pyrazolo[1,5-a]pyridine-3-amido}spiro[3.3]heptan-2-yl]oxy}-1,3-thiazole-5-carboxamide], the IC50 stood at 71.6 nM. This IC50 lies about 3.9-fold higher than the previous one.

In turn, `CC(C)(O)COc1ccc2c(C(=O)N[C@H]3C[C@]4(C3)C[C@H](Oc3nn(-c5ccccc5)cc3C(N)=O)C4)cnn2c1C1CC1` (stereo partly drawn) [Example 15, 3-({(aR)-6-[7-cyclopropyl-6-(2-hydroxy-2-methylpropoxy)pyrazolo [1,5-a]pyridine-3-amido]spiro[3.3]heptan-2-yl}oxy)-1-phenyl-1H-pyrazole-4-carboxamide] showed an IC50 of 12.5 nM. Compared with the last compound, the IC50 is about 5.7-fold lower.

For the compound `Cn1ncc2cc(C(N)=O)c(O[C@H]3C[C@@]4(C[C@H](NC(=O)c5cccc(C#N)c5)C4)C3)nc21` (stereo partly drawn) [Example 102, 1-methyl-6-{[(aR)-6-(3-cyanobenzamido)spiro[3.3]heptan-2-yl]oxy}-1H-pyrazolo[3,4-b]pyridine-5-carboxamide], inhibition was half-maximal at 8 nM (IC50).

For the compound `Cc1c(C(=O)N[C@H]2C[C@]3(C2)C[C@H](Oc2nn(C)cc2C(N)=O)C3)cnn1-c1ccc(Cl)cc1` (stereo partly drawn) [Example 47, 1-(4-chlorophenyl)-5-methyl-N-[(aR)-6-[(4-carbamoyl-1-methyl-1H-pyrazol-3-yl)oxy]spiro[3.3]heptan-2-yl]-1H-pyrazole-4-carboxamide], the IC50 is 113 nM. Take `NC(=O)c1cn(C2CC2)nc1O[C@H]1C[C@]2(C1)C[C@H](N1C(=O)NC(Cc3ccccc3)C1=O)C2` (stereo partly drawn) [Example 104, 1-cyclopropyl-3-{[(aR)-6-(4-benzyl-2,5-dioxoimidazolidin-1-yl)spiro[3.3]heptan-2-yl]oxy}-1H-pyrazole-4-carboxamide]: it took 2040 nM to reach half-maximal inhibition (IC50). `NC(=O)c1cc2sccc2nc1OC1CC2(CC(NC(=O)C3CCC(F)(F)CC3)C2)C1` (stereo not drawn) [Example 77, 5-{[6-(4,4-difluorocyclohexane amido)spiro[3.3]heptan-2-yl]oxy}thieno[3,2-b]pyridine-6-carboxamide] gave a half-maximal inhibitory concentration (IC50) of 634 nM.
